Patent US9695155B2, “Herbicidal substituted pyrimidinyloxy benzene compounds” (E. I. DU PONT DE NEMOURS AND COMPANY, priority 2013, dated 2017)

Assays:
barnyardgrass [1] = assay: Test A postemergence; assay type: in vivo, Echinochloa crus-galli; conditions: for Plant response rating, Barnyardgrass: 0 to 100 scale, 0 no effect, 100 complete control
Procedure, shortened: (§1)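 Compounds in non-phytotoxic solvent with surfactant applied as soil spray preemergence, or postemergence to plants 2-10 cm at one- to two-leaf stage, in loam/sand. After approximately 10 days in greenhouse, injury rated visually versus untreated controls, 0 (no effect) to 100 (complete control).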

wheat = assay: Test A postemergence; assay type: in vivo, Triticum aestivum; conditions: for Plant response rating, Wheat: 0 to 100 scale, 0 no effect, 100 complete control
Procedure, shortened: as §1

rice = assay: Test B flooded paddy test; assay type: in vivo, Oryza sativa; conditions: Flood, 250 g ai/ha, 0 to 100 scale where 0 is no effect and 100 is complete control
Procedure, shortened: (§2)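 Visual ratings on a 0 to 100 scale, where 100 means complete control, compared treated plants with controls after 13 to 15 days in a greenhouse. Treatment went into paddy water 3 cm deep over the soil, applied to plants at the 2-leaf stage.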

sedge, umbrella = assay: Test B flooded paddy test; assay type: in vivo, Cyperus difformis; conditions: Flood, 250 g ai/ha, 0 to 100 scale where 0 is no effect and 100 is complete control
Procedure, shortened: as §2

Heteranthera limosa = assay: Test B flooded paddy test; assay type: in vivo; conditions: Flood, 250 g ai/ha, 0 to 100 scale where 0 is no effect and 100 is complete control
Procedure, shortened: as §2

barnyardgrass [2] = assay: Test B flooded paddy test; assay type: in vivo, Echinochloa crus-galli; conditions: Flood, 250 g ai/ha, 0 to 100 scale where 0 is no effect and 100 is complete control
Procedure, shortened: as §2

wheat, winter = assay: Test C postemergence; assay type: in vivo, Triticum aestivum; conditions: for Wheat plant response rating: 31 g ai/ha
Procedure, shortened: (§3)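 Greenhouse herbicide screen. Pre: seeded loam/sand, sprayed at planting. Post: 1–4 leaf plants (2–18 cm) in peat-based mix. Formulation: solvent mixture + surfactant, non-phytotoxic. Readout: visual % control vs untreated, 13–15 d; dash = not tested.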

corn = assay: Test C postemergence; assay type: in vivo, Zea mays
Procedure, shortened: as §3

giant foxtail = assay: Test C postemergence; assay type: in vivo, Setaria faberii
Procedure, shortened: as §3

morningglory = assay: Test C postemergence; assay type: in vivo, Ipomoea coccinea; conditions: for Morningglory plant response rating: 31 g ai/ha
Procedure, shortened: as §3

yellow nutsedge = assay: Test C postemergence; assay type: in vivo, Cyperus esculentus; conditions: for Nutsedge, Yellow plant response rating: 31 g ai/ha
Procedure, shortened: as §3

ragweed = assay: Test C postemergence; assay type: in vivo, Ambrosia elatior; conditions: for Ragweed plant response rating: 31 g ai/ha
Procedure, shortened: as §3

soybean = assay: Test C postemergence; assay type: in vivo, Glycine max; conditions: for Soybean plant response rating: 31 g ai/ha
Procedure, shortened: as §3

[3] = 16 g ai/ha, postemergence, 0 is no effect, 100 is complete control
[4] = postemergence, visual rating, scale 0 to 100 (0 no effect, 100 complete control), 13 to 15 days
[5] = 125 g ai/ha, postemergence, visual rating, scale 0 to 100 (0 no effect, 100 complete control)
[6] = Postemergence, 62 g ai/ha, scale 0 to 100 (0 no effect, 100 complete control), 13 to 15 days
[7] = 31 g ai/ha, postemergence, visual rating, scale 0 to 100 (0 no effect, 100 complete control), 13 to 15 days
[8] = Postemergence, 62 g ai/ha, scale 0 to 100 (0 no effect, 100 complete control)

## FCc1cccc(Oc2ncc(Cl)cn2)c1-n1cc(I)cn1 [Compound 245]
Barnyardgrass [1]; 31 g ai/ha
  Plant response rating, Barnyardgrass: 0
Barnyardgrass [1]; 125 g ai/ha
  Plant response rating, Barnyardgrass: 30
wheat; 31 g ai/ha
  Plant response rating, Wheat: 20
wheat; 125 g ai/ha
  Plant response rating, Wheat: 40
rice
  Plant response rating, Rice: 0
sedge, umbrella
  Plant response rating, Sedge, Umbrella: 60
Heteranthera limosa
  Plant response rating, Ducksalad: 75
Barnyardgrass [2]
  Plant response rating, Barnyardgrass: 0
wheat, winter; [3]
  Plant response rating (0 to 100), Wheat: 0
wheat, winter; [4]
  Wheat plant response rating: 0
wheat, winter; [5]
  Plant response rating, Wheat: 5
wheat, winter; [6]
  Plant response rating, Wheat: 0
corn; [3]
  Plant response rating (0 to 100), Corn: 5
corn; [7]
  Corn plant response rating: 5
corn; [5]
  Plant response rating, Corn: 5
corn; [6]
  Plant response rating, Corn: 5
Giant foxtail; [3]
  Plant response rating (0 to 100), Foxtail, Giant: 35
Giant foxtail; [7]
  Foxtail, Giant plant response rating: 35
Giant foxtail; [5]
  Plant response rating, Foxtail, Giant: 15
Giant foxtail; [6]
  Plant response rating, Foxtail, Giant: 20
morningglory; [3]
  Plant response rating (0 to 100), Morningglory: 5
morningglory; [4]
  Morningglory plant response rating: 30
morningglory; [5]
  Plant response rating, Morningglory: 85
morningglory; [6]
  Plant response rating, Morningglory: 65
Yellow nutsedge; [3]
  Plant response rating (0 to 100), Nutsedge, Yellow: 5
Yellow nutsedge; [4]
  Nutsedge, Yellow plant response rating: 5
Yellow nutsedge; [5]
  Plant response rating, Nutsedge, Yellow: 10
Yellow nutsedge; [6]
  Plant response rating, Nutsedge, Yellow: 5
ragweed; [3]
  Plant response rating (0 to 100), Ragweed: 35
ragweed; [4]
  Ragweed plant response rating: 40
ragweed; [5]
  Plant response rating, Ragweed: 60
ragweed; [6]
  Plant response rating, Ragweed: 45
soybean; [3]
  Plant response rating (0 to 100), Soybean: 40
soybean; [4]
  Soybean plant response rating: 60
soybean; [5]
  Plant response rating, Soybean: 90
soybean; [6]
  Plant response rating, Soybean: 60

## FCc1cn(-c2ccccc2Oc2ncc(Cl)cn2)nn1 [Compound 123]
Barnyardgrass [1]; 1000 g ai/ha
  Plant response rating, Barnyardgrass: 100
wheat; 1000 g ai/ha
  Plant response rating, Wheat: 70
rice
  Plant response rating, Rice: 0
sedge, umbrella
  Plant response rating, Sedge, Umbrella: 40
Heteranthera limosa
  Plant response rating, Ducksalad: 80
Barnyardgrass [2]
  Plant response rating, Barnyardgrass: 35
wheat, winter; [3]
  Plant response rating (0 to 100), Wheat: 0
wheat, winter; [5]
  Plant response rating, Wheat: 5
wheat, winter; [8]
  Plant response rating, Wheat: 0
corn; [3]
  Plant response rating (0 to 100), Corn: 0
corn; [5]
  Plant response rating, Corn: 5
corn; [8]
  Plant response rating, Corn: 5
Giant foxtail; [3]
  Plant response rating (0 to 100), Foxtail, Giant: 0
Giant foxtail; [5]
  Plant response rating, Foxtail, Giant: 20
Giant foxtail; [8]
  Plant response rating, Foxtail, Giant: 20
morningglory; [3]
  Plant response rating (0 to 100), Morningglory: 5
morningglory; [5]
  Plant response rating, Morningglory: 75
morningglory; [8]
  Plant response rating, Morningglory: 55
Yellow nutsedge; [3]
  Plant response rating (0 to 100), Nutsedge, Yellow: 5
Yellow nutsedge; [5]
  Plant response rating, Nutsedge, Yellow: 10
Yellow nutsedge; [8]
  Plant response rating, Nutsedge, Yellow: 10
ragweed; [3]
  Plant response rating (0 to 100), Ragweed: 35
ragweed; [5]
  Plant response rating, Ragweed: 75
ragweed; [8]
  Plant response rating, Ragweed: 70
soybean; [3]
  Plant response rating (0 to 100), Soybean: 45
soybean; [5]
  Plant response rating, Soybean: 90
soybean; [8]
  Plant response rating, Soybean: 65

## FC(F)c1cn(-c2ccccc2Oc2ncc(Cl)cn2)nn1 [Compound 147, 5-chloro-2-[2-[4-(difluoromethyl)-1H-1,2,3-triazol-1-yl]phenoxy]pyrimidine]
Barnyardgrass [1]; Echinochloa crus-galli, post-emergence, 240 h, 125 g ai/ha, 0 to 100 scale where 0 is no effect and 100 is complete control, read-out: Barnyardgrass plant response rating
  pest or weed control at 125 g/ha: 90%
Barnyardgrass [1]; Echinochloa crus-galli, post-emergence, 240 h, 500 g ai/ha, 0 to 100 scale where 0 is no effect and 100 is complete control, read-out: Plant response rating, Barnyardgrass
  pest or weed control at 500 g/ha: 90%
wheat; Triticum aestivum, post-emergence, 240 h, 125 g ai/ha, 0 to 100 scale where 0 is no effect and 100 is complete control, read-out: Wheat plant response rating
  plant injury at 125 g/ha: 50%
wheat; Triticum aestivum, post-emergence, 240 h, 500 g ai/ha, 0 to 100 scale where 0 is no effect and 100 is complete control, read-out: Plant response rating, Wheat
  plant injury at 500 g/ha: 80%
rice; Oryza sativa, read-out: Plant response rating, Rice
  plant injury at 250 g/ha: 35%
sedge, umbrella; Cyperus difformis, read-out: Plant response rating, Sedge, Umbrella
  pest or weed control at 250 g/ha: 75%
Heteranthera limosa; Heteranthera limosa, read-out: Plant response rating, Ducksalad
  pest or weed control at 250 g/ha: 80%
Barnyardgrass [2]; Echinochloa crus-galli, read-out: Plant response rating, Barnyardgrass
  pest or weed control at 250 g/ha: 35%
wheat, winter; [4]
  Wheat plant response rating: 5
wheat, winter; Triticum aestivum, post-emergence, 16 g ai/ha, postemergence, 0 is no effect, 100 is complete control, read-out: Plant response rating (0 to 100), Wheat
  plant injury at 16 g/ha: 0%
wheat, winter; Triticum aestivum, post-emergence, 125 g ai/ha, postemergence, visual rating, scale 0 to 100 (0 no effect, 100 complete control), read-out: Plant response rating, Wheat
  plant injury at 125 g/ha: 15%
wheat, winter; Triticum aestivum, post-emergence, Postemergence, 62 g ai/ha, scale 0 to 100 (0 no effect, 100 complete control), read-out: Plant response rating, Wheat
  plant injury at 62 g/ha: 10%
corn; Zea mays, post-emergence, 16 g ai/ha, postemergence, 0 is no effect, 100 is complete control, read-out: Plant response rating (0 to 100), Corn
  plant injury at 16 g/ha: 5%
corn; Zea mays, post-emergence, 31 g ai/ha, postemergence, visual rating, scale 0 to 100 (0 no effect, 100 complete control), 13 to 15 days, read-out: Corn plant response rating
  plant injury at 31 g/ha: 5%
corn; Zea mays, post-emergence, 125 g ai/ha, postemergence, visual rating, scale 0 to 100 (0 no effect, 100 complete control)
  Corn plant response rating (crop injury, 0 = no effect, 100 = complete kill) at 125 g/ha: 10%
corn; Zea mays, post-emergence, Postemergence, 62 g ai/ha, scale 0 to 100 (0 no effect, 100 complete control)
  Corn plant response rating (crop injury, 0 = no effect, 100 = complete kill) at 62 g/ha: 5%
Giant foxtail; Setaria faberi, post-emergence, 16 g ai/ha, postemergence, 0 is no effect, 100 is complete control, read-out: Plant response rating (0 to 100), Foxtail, Giant
  pest or weed control at 16 g/ha: 0%
Giant foxtail; Setaria faberi, post-emergence, 31 g ai/ha, postemergence, visual rating, scale 0 to 100 (0 no effect, 100 complete control), 13 to 15 days, read-out: Foxtail, Giant plant response rating
  pest or weed control at 31 g/ha: 0%
Giant foxtail; Setaria faberi, post-emergence, 125 g ai/ha, postemergence, visual rating, scale 0 to 100 (0 no effect, 100 complete control), read-out: Plant response rating, Foxtail, Giant
  pest or weed control at 125 g/ha: 50%
Giant foxtail; Setaria faberi, post-emergence, Postemergence, 62 g ai/ha, scale 0 to 100 (0 no effect, 100 complete control), read-out: Plant response rating, Foxtail, Giant
  pest or weed control at 62 g/ha: 20%
morningglory; [4]
  Morningglory plant response rating: 70
morningglory; Ipomoea, post-emergence, 16 g ai/ha, postemergence, 0 is no effect, 100 is complete control, read-out: Plant response rating (0 to 100), Morningglory
  pest or weed control at 16 g/ha: 70%
morningglory; Ipomoea, post-emergence, 125 g ai/ha, postemergence, visual rating, scale 0 to 100 (0 no effect, 100 complete control), read-out: Plant response rating, Morningglory
  pest or weed control at 125 g/ha: 80%
morningglory; Ipomoea, post-emergence, Postemergence, 62 g ai/ha, scale 0 to 100 (0 no effect, 100 complete control), read-out: Plant response rating, Morningglory
  pest or weed control at 62 g/ha: 75%
Yellow nutsedge; [4]
  Nutsedge, Yellow plant response rating: 0
Yellow nutsedge; Cyperus, post-emergence, 16 g ai/ha, postemergence, 0 is no effect, 100 is complete control, read-out: Plant response rating (0 to 100), Nutsedge, Yellow
  pest or weed control at 16 g/ha: 0%
Yellow nutsedge; Cyperus, post-emergence, 125 g ai/ha, postemergence, visual rating, scale 0 to 100 (0 no effect, 100 complete control), read-out: Plant response rating, Nutsedge, Yellow
  pest or weed control at 125 g/ha: 5%
Yellow nutsedge; Cyperus, post-emergence, Postemergence, 62 g ai/ha, scale 0 to 100 (0 no effect, 100 complete control), read-out: Plant response rating, Nutsedge, Yellow
  pest or weed control at 62 g/ha: 0%
ragweed; [4]
  Ragweed plant response rating: 65
ragweed; Ambrosia artemisiifolia, post-emergence, 16 g ai/ha, postemergence, 0 is no effect, 100 is complete control, read-out: Plant response rating (0 to 100), Ragweed
  pest or weed control at 16 g/ha: 40%
ragweed; Ambrosia artemisiifolia, post-emergence, 125 g ai/ha, postemergence, visual rating, scale 0 to 100 (0 no effect, 100 complete control), read-out: Plant response rating, Ragweed
  pest or weed control at 125 g/ha: 85%
ragweed; Ambrosia artemisiifolia, post-emergence, Postemergence, 62 g ai/ha, scale 0 to 100 (0 no effect, 100 complete control), read-out: Plant response rating, Ragweed
  pest or weed control at 62 g/ha: 75%
soybean; [4]
  Soybean plant response rating: 65
soybean; Glycine max, post-emergence, 16 g ai/ha, postemergence, 0 is no effect, 100 is complete control
  Soybean plant response rating (crop injury, 0-100 scale) at 16 g/ha: 65%
soybean; Glycine max, post-emergence, 125 g ai/ha, postemergence, visual rating, scale 0 to 100 (0 no effect, 100 complete control), read-out: Plant response rating, Soybean
  Soybean plant response rating (crop injury, 0-100 scale) at 125 g/ha: 90%
soybean; Glycine max, post-emergence, Postemergence, 62 g ai/ha, scale 0 to 100 (0 no effect, 100 complete control)
  Soybean plant response rating (crop injury, 0-100 scale) at 62 g/ha: 85%
